# Laboratory results taken from ChEMBL document CHEMBL1153045, “Aminopiperidine-fused imidazoles as dipeptidyl peptidase-IV inhibitors” (Bioorg Med Chem Lett, 2009).
# Columns and labels:
# Dipeptidyl peptidase 8 = Dipeptidyl peptidase 8 (Homo sapiens, UniProt Q6V1X1); assay: Inhibition of human DPP8 expressed in baculovirus by continuous fluorescent assay
# [1] = molecular target: Voltage-gated inwardly rectifying potassium channel KCNH2 (Homo sapiens, UniProt Q12809); assay: Inhibition of human ERG
# [2] = Half life in rat at 1 mg/kg, iv or 2 mg/kg, po; format: ADME, organism-based; settings: in vivo
# [3] = Plasma clearance in rat at 1 mg/kg, iv or 2 mg/kg, po; format: ADME, organism-based
# [4] = Oral bioavailability in rat at 2 mg/kg, po; format: ADME, organism-based; settings: in vivo
# Cytochrome P450 2D6 = Cytochrome P450 2D6 (Homo sapiens, UniProt P10635); assay: Inhibition of CYP2D6; format: ADME
# [5] = Inhibition of rabbit L-type calcium channel; set-up: species or system Oryctolagus cuniculus
# Dipeptidyl peptidase 9 = Dipeptidyl peptidase 9 (Homo sapiens, UniProt Q86TI2); assay: Inhibition of human DPP9 expressed in baculovirus by continuous fluorescent assay
# [6] = Metabolic stability in dog liver microsomes assessed as compound remaining after 60 mins; format: ADME, Canis lupus familiaris, Microsome; settings: read-out: Stability
# [7] = Metabolic stability in human hepatocytes assessed as compound remaining after 60 mins; format: ADME, cell-based, Hepatocyte; settings: read-out: Stability
# [8] = Metabolic stability in rhesus monkey hepatocytes assessed as compound remaining after 60 mins; format: ADME, cell-based, Macaca mulatta, Hepatocyte; settings: read-out: Stability
# [9] = Metabolic stability in rat liver microsomes assessed as compound remaining after 60 mins; format: ADME, Microsome; settings: read-out: Stability
# [10] = Metabolic stability in rhesus monkey liver microsomes assessed as compound remaining after 60 mins; format: ADME, Macaca mulatta, Microsome; settings: read-out: Stability
# [11] = Metabolic stability in rat hepatocytes assessed as compound remaining after 60 mins; format: ADME, cell-based, Hepatocyte; settings: read-out: Stability
# [12] = Metabolic stability in dog hepatocytes assessed as compound remaining after 60 mins; format: ADME, cell-based, Canis lupus familiaris, Hepatocyte; settings: read-out: Stability
# [13] = Metabolic stability in human liver microsomes assessed as compound remaining after 60 mins; format: ADME, Microsome; settings: read-out: Stability
# Dipeptidyl peptidase 2 = Dipeptidyl peptidase 2 (Homo sapiens, UniProt Q9UHL4); assay: Inhibition of human recombinant QPP transfected in insect SF9 cells
# [14] = Oral bioavailability in rhesus monkey at 2 mg/kg, po; format: ADME, organism-based, Macaca mulatta; settings: in vivo
# [15] = Plasma concentration in C57BL/6N lean mouse at 1 mg/kg, po administered as single dose 60 mins before dextrose challenge by oral glucose tolerance test; format: ADME, organism-based; set-up: dose 1 mg/kg, route oral
# [16] = Half life in mouse at 1 mg/kg, iv or 2 mg/kg, po; format: ADME, organism-based; settings: in vivo
# [17] = Half life in dog at 1 mg/kg, iv or 2 mg/kg, po; format: ADME, organism-based, Canis lupus familiaris; settings: in vivo
# Mus musculus [18] = assay: Inhibition of DPP4 in C57BL/6N lean mouse at 1 mg/kg, po administered as single dose 60 mins before dextrose challenge by oral glucose tolerance test; format: functional
# [19] = Plasma clearance in dog at 1 mg/kg, iv or 2 mg/kg, po; format: ADME, organism-based, Canis lupus familiaris
# [20] = Oral bioavailability in dog at 2 mg/kg, po; format: ADME, organism-based, Canis lupus familiaris; settings: in vivo
# [21] = Plasma clearance in mouse at 1 mg/kg, iv or 2 mg/kg, po; format: ADME, organism-based
# [22] = Oral bioavailability in mouse at 2 mg/kg, po; format: ADME, organism-based; settings: in vivo
# [23] = Fraction unbound in mouse plasma; format: ADME, cell-free
# Mus musculus [24] = assay: Reduction in glucose excursion in C57BL/6N lean mouse at 3 mg/kg, po administered as single dose 60 mins before dextrose challenge by oral glucose tolerance test; format: functional; set-up: scale not given: the % may be the effect or the level left
# Dipeptidyl peptidase 4 = Dipeptidyl peptidase 4 (Mus musculus, UniProt P28843); assay: Inhibition of C57BL/6N mouse DPP4
# [25] = Half life in rhesus monkey at 1 mg/kg, iv or 2 mg/kg, po; format: ADME, organism-based, Macaca mulatta; settings: in vivo
# [26] = Plasma clearance in rhesus monkey at 1 mg/kg, iv or 2 mg/kg, po; format: ADME, organism-based, Macaca mulatta
# Mus musculus [27] = assay: Reduction in glucose excursion in C57BL/6N lean mouse at 0.1 mg/kg, po administered as single dose 60 mins before dextrose challenge by oral glucose tolerance test; format: functional; set-up: scale not given: the % may be the effect or the level left
# Cytochrome P450 2D6, sequence (P10635 whole entry): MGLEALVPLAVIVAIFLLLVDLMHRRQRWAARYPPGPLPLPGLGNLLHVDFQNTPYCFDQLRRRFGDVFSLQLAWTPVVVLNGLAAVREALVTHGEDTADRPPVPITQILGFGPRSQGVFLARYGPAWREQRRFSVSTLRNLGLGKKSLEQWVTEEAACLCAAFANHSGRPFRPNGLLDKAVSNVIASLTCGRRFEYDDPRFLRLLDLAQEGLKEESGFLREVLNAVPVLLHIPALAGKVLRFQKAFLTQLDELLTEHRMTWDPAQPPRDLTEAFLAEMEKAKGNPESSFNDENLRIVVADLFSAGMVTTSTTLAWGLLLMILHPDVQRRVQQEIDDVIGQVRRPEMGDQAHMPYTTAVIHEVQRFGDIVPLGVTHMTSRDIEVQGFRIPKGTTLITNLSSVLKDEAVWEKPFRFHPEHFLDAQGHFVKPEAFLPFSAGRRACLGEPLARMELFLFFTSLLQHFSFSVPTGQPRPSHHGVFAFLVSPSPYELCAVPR
# Dipeptidyl peptidase 9, sequence (Q86TI2 whole entry): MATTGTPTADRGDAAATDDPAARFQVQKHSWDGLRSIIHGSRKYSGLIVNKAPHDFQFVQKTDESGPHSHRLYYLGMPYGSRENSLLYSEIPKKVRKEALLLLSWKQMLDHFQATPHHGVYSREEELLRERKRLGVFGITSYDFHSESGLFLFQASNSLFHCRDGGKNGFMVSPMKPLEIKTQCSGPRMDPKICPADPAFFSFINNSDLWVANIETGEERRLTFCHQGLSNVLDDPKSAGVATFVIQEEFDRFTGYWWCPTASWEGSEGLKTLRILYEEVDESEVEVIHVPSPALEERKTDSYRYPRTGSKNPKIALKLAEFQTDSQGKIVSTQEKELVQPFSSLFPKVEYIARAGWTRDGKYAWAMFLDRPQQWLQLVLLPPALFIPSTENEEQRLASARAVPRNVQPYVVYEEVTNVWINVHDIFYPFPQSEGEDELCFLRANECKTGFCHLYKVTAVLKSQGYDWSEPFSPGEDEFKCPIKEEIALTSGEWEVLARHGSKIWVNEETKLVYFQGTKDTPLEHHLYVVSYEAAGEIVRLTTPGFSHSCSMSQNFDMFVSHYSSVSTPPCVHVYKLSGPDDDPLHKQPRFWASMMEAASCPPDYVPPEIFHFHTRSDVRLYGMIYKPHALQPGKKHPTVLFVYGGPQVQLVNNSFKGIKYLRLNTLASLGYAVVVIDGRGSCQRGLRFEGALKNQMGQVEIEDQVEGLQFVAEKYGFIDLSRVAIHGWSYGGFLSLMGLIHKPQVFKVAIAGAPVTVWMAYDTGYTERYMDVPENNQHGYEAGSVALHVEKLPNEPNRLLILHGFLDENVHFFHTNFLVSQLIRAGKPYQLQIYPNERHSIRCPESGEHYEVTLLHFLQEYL
# Voltage-gated inwardly rectifying potassium channel KCNH2, sequence (Q12809 whole entry): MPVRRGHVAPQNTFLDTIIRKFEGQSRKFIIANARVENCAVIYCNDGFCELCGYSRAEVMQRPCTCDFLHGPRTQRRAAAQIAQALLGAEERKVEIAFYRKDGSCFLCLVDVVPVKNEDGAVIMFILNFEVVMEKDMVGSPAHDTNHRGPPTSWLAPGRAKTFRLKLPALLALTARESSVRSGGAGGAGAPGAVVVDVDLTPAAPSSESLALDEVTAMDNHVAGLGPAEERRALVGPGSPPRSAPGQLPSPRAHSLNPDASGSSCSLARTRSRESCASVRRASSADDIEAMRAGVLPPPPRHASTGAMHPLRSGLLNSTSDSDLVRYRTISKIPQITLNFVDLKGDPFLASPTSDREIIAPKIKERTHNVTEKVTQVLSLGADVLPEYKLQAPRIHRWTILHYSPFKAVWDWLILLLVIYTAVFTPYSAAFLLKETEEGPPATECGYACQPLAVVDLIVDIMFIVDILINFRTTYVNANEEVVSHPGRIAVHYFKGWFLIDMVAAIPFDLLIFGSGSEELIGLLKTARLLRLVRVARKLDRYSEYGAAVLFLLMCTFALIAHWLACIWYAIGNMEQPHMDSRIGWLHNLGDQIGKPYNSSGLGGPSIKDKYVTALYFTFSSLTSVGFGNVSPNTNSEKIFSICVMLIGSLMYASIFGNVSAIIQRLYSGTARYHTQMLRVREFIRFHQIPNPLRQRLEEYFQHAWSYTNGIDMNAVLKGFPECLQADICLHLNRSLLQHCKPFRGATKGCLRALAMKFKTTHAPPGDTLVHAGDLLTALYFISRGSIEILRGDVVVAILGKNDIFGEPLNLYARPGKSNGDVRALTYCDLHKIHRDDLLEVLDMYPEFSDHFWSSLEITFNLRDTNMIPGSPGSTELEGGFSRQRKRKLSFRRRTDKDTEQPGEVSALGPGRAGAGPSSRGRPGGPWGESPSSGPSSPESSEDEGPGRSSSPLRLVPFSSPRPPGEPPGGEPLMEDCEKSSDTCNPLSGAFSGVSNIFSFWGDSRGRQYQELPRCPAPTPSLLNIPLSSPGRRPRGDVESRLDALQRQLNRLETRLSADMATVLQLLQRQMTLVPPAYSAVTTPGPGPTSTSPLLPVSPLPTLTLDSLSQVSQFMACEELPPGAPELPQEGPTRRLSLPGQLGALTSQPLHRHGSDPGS
# Dipeptidyl peptidase 8, sequence (Q6V1X1 whole entry): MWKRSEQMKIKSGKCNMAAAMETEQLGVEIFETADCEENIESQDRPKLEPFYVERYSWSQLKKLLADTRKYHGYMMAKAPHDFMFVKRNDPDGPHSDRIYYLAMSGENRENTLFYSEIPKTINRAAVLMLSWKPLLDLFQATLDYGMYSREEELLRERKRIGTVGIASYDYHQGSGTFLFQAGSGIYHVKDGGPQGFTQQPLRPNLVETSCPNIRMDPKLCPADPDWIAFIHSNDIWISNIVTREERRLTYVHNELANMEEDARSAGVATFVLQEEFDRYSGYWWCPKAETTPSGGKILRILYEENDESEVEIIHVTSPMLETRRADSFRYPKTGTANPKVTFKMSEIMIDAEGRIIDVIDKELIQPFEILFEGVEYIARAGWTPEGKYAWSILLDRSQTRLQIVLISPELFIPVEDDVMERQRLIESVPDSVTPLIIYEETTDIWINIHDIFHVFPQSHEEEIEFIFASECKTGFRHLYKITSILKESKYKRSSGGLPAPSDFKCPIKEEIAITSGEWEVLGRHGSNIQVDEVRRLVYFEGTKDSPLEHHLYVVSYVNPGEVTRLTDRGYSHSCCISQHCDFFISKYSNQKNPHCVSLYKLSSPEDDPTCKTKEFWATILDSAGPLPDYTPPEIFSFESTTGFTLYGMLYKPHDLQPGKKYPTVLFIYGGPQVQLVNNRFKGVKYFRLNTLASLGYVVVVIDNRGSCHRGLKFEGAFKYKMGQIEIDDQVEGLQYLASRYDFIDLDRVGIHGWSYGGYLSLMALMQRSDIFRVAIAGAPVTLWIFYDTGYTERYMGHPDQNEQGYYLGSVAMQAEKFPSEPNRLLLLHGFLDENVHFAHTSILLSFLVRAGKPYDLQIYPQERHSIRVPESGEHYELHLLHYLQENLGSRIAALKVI
# Dipeptidyl peptidase 4, sequence (P28843 whole entry): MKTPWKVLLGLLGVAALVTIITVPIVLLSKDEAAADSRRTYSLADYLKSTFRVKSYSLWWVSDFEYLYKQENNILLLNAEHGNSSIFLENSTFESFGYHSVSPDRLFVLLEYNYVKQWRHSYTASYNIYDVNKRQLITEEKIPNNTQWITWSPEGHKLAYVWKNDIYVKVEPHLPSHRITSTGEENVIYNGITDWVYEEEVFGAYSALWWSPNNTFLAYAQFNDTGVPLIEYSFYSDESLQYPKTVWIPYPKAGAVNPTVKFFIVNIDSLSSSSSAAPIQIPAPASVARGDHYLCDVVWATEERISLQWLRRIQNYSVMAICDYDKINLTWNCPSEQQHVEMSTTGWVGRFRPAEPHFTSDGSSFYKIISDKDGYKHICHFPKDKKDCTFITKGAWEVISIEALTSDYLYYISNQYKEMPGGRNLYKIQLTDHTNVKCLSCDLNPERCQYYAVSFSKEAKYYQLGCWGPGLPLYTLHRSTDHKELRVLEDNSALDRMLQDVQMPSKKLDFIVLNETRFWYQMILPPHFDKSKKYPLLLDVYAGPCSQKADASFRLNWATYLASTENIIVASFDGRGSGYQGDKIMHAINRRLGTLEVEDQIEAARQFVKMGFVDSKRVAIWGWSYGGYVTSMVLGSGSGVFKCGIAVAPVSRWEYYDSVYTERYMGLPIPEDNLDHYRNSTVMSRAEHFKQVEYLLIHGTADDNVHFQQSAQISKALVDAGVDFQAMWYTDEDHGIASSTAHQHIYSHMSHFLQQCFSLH
Compound,IC50 (Dipeptidyl peptidase 8) [µM],half-life [2] [h],clearance [3] [mL/min/kg],bioavailability [4] [%],IC50 (Dipeptidyl peptidase 9) [µM],other results
CS(=O)(=O)Nc1ccc2c(c1)nc1n2C[C@H](N)[C@@H](c2cc(F)c(F)cc2F)C1,> 100,,,,,IC50 [1]: 2.5 µM
N[C@H]1Cn2c(nc3cnc(C(F)(F)F)cc32)C[C@@H]1c1cc(F)c(F)cc1F.O=C(O)C(F)(F)F.O=C(O)C(F)(F)F,,8.7,1.4,110,,IC50 (Cytochrome P450 2D6): 11 µM; IC50 [5]: 96 µM
CS(=O)(=O)c1ccc2c(c1)nc1n2C[C@H](N)[C@@H](c2cc(F)c(F)cc2F)C1.O=C(O)C(F)(F)F,> 100,3.4,2.2,63,> 100,IC50 (Cytochrome P450 2D6): 1.5 µM; IC50 [5]: > 100 µM
N[C@H]1Cn2c(nc3cnccc32)C[C@@H]1c1cc(F)c(F)cc1F.O=C(O)C(F)(F)F.O=C(O)C(F)(F)F,> 100,2.6,8.7,140,> 100,remaining at 1 h [6]: 92%; remaining at 1 h [7]: 99%; remaining at 1 h [8]: 35%; remaining at 1 h [9]: 83%; remaining at 1 h [10]: 69%; IC50 (Cytochrome P450 2D6): 13 µM; remaining at 1 h [11]: 94%; remaining at 1 h [12]: 99%; remaining at 1 h [13]: 97%; IC50 (Dipeptidyl peptidase 2; sf9): > 100 µM
N[C@H]1Cn2c(nc3cnc(F)cc32)C[C@@H]1c1cc(F)c(F)cc1F.O=C(O)C(F)(F)F.O=C(O)C(F)(F)F,> 100,17,0.5,87,,IC50 (Cytochrome P450 2D6): 12 µM; IC50 [1]: 81 µM; IC50 [5]: 1.5 µM
N[C@H]1Cn2c(nc3ncccc32)C[C@@H]1c1cc(F)c(F)cc1F.O=C(O)C(F)(F)F.O=C(O)C(F)(F)F,> 100,3.8,3.9,96,> 100,IC50 (Cytochrome P450 2D6): 5.2 µM; IC50 [1]: 90 µM; IC50 [5]: > 100 µM
Cc1ccc2c(c1)nc1n2C[C@H](N)[C@@H](c2cc(F)c(F)cc2F)C1,> 100,,,,> 100,
N[C@H]1Cn2c(nc3cc(C(=O)O)ccc32)C[C@@H]1c1cc(F)c(F)cc1F.O=C(O)C(F)(F)F,> 100,0.4,61,24,> 100,IC50 (Dipeptidyl peptidase 2): > 100 µM
N[C@H]1Cn2c(nc3ccc(F)cc32)C[C@@H]1c1cc(F)c(F)cc1F.O=C(O)C(F)(F)F,> 100,1.4,25,37,,
Cl.N[C@H]1Cn2c(nc3cnccc32)C[C@@H]1c1cc(F)c(F)cc1F,> 100,,,,> 100,bioavailability [14]: 11%; concentration at 1 h [15]: 691 nM; half-life [16]: 1.9 h; half-life [17]: 13 h; inhibition in vivo at 1 mg/kg (Mus musculus [18]): 88%; clearance [19]: 2.7 mL/min/kg; bioavailability [20]: 120%; IC50 (Cytochrome P450 2D6): 13 µM; clearance [21]: 36 mL/min/kg; bioavailability [22]: 73%; fraction unbound [23]: 0.55; Activity (Mus musculus [24]): 49%; IC50 (Dipeptidyl peptidase 4): 0.045 µM; IC50 [5]: > 100 µM; half-life [25]: 1 h; clearance [26]: 35 mL/min/kg; IC50 (Dipeptidyl peptidase 2): > 100 µM; Activity (Mus musculus [27]): 27%
N[C@H]1Cn2c(nc3cccnc32)C[C@@H]1c1cc(F)c(F)cc1F,> 100,,,,> 100,
N[C@H]1Cn2c(nc3c(F)cc(F)cc32)C[C@@H]1c1cc(F)c(F)cc1F,> 100,,,,,
N[C@H]1Cn2c(nc3ccncc32)C[C@@H]1c1cc(F)c(F)cc1F,,,,,,IC50 (Dipeptidyl peptidase 2): > 100 µM
N[C@H]1Cn2c(nc3c(F)c(F)c(F)cc32)C[C@@H]1c1cc(F)c(F)cc1F,> 100,,,,,
N[C@H]1Cn2c(nc3cc(C(F)(F)F)ccc32)C[C@@H]1c1cc(F)c(F)cc1F.O=C(O)C(F)(F)F,> 100,7.6,4.8,55,> 100,
CN(C)C(=O)c1ccc2c(c1)nc1n2C[C@H](N)[C@@H](c2cc(F)c(F)cc2F)C1,> 100,,,,> 100,
N[C@H]1Cn2c(nc3ccccc32)C[C@@H]1c1cc(F)c(F)cc1F,> 100,,,,> 100,

# Continued, in another order:
IC50 (Dipeptidyl peptidase 8) [µM],half-life [2] [h],clearance [3] [mL/min/kg],bioavailability [4] [%],IC50 (Dipeptidyl peptidase 9) [µM],Compound,other results
> 100,,,,,N[C@H]1Cn2c(nc3ccc(C(F)(F)F)cc32)C[C@@H]1c1cc(F)c(F)cc1F,
> 100,,,,,N[C@H]1Cn2c(nc3cc(F)ccc32)C[C@@H]1c1cc(F)c(F)cc1F,
> 100,,,,> 100,CCS(=O)(=O)c1ccc2c(c1)nc1n2C[C@H](N)[C@@H](c2cc(F)c(F)cc2F)C1,IC50 (Dipeptidyl peptidase 2): > 100 µM
> 100,,,,> 100,N[C@H]1Cn2c(nc3c(F)cccc32)C[C@@H]1c1cc(F)c(F)cc1F,
,,,,> 100,N[C@H]1Cn2c(nc3ccc(OC(F)(F)F)cc32)C[C@@H]1c1cc(F)c(F)cc1F,
> 100,,,,> 100,CS(=O)(=O)c1ccc2nc3n(c2c1)C[C@H](N)[C@@H](c1cc(F)c(F)cc1F)C3,IC50 (Dipeptidyl peptidase 2): > 100 µM
> 100,,,,,COc1ccc2c(c1)nc1n2C[C@H](N)[C@@H](c2cc(F)c(F)cc2F)C1,
,,,,> 100,CC(=O)Nc1ccc2c(c1)nc1n2C[C@H](N)[C@@H](c2cc(F)c(F)cc2F)C1,
